In paper PMC4467398, “Preclinical antitumor activity of ST7612AA1: a new oral thiol-based histone deacetylase (HDAC) inhibitor” (Oncotarget, 2014):

Tested on: DOHH2 and TMD8 DLBCL cells
Test: Gene expression profiling (HumanHT-12 v4 BeadChip, limma), ST7612AA1 300 nM 8 hrs vs DMSO
Assay type: cell-based, human
Conditions: 300 nM 8 hrs vs DMSO

SMILES: CC(=O)SCCCCC[C@H](NC(=O)[C@H]1CCC(=O)N1)C(=O)Nc1ccccc1 [ST7612AA1]
- log ratio LOC285359 (ILMN_1675878): 6.44E-01
- log ratio LOC388588 (probe ILMN_1749834): 7.07E-01
- log ratio LOC389816 (ILMN_2249018): 6.55E-01
- log ratio LOC643384 (ILMN_3219806): -1.06E+00
- log ratio LOC644563 (ILMN_3207122): -1.31E+00
- log ratio LOC644988 (ILMN_3201485): 6.07E-01
- log ratio LOC646463 (ILMN_1721651): 6.71E-01
- log ratio LOC646786 (ILMN_1654915): 6.50E-01
- log ratio LOC646817 (ILMN_1702585): -1.11E+00
- log ratio LOC647784 (ILMN_1674710): 6.05E-01
- log ratio LOC650215 (ILMN_1743711): -8.77E-01
- log ratio LOC653566 (ILMN_1780382): -6.21E-01
- log ratio LOC654191 (probe ILMN_1762308): 7.84E-01
- log ratio LOC727935 (probe ILMN_1691616): 7.14E-01
- log ratio LOC728014 (probe ILMN_1711699): 8.58E-01
- log ratio LOC728492 (ILMN_1655444): -8.05E-01
- log ratio LOC728602 (ILMN_3305993): 6.70E-01
- log ratio LOC728650 (ILMN_3234615): -8.83E-01
- log ratio LOC729495 (probe ILMN_3297510): 7.45E-01
- log ratio LOC730101 (probe ILMN_3305735): 7.41E-01
- log ratio LOC730415 (probe ILMN_3228688): 6.95E-01
- log ratio LOC731049 (ILMN_1808591): 6.61E-01
- log ratio LOC731314 (probe ILMN_1785756): 8.31E-01
- log ratio LOC100128163 (probe ILMN_3182893): 7.83E-01
- log ratio LOC100130919 (ILMN_3176090): -8.14E-01
- log ratio LOC100131727 (probe ILMN_3292990): 7.73E-01
- log ratio LOC100131735 (ILMN_3208233): -5.90E-01
- log ratio LOC100132715 (ILMN_3211935): -5.93E-01
- log ratio LOC100133583 (probe ILMN_3214389): 8.94E-01
- log ratio LOC100133678 (probe ILMN_3249667): 8.11E-01
- log ratio LOC100134361 (probe ILMN_3241081): 8.59E-01
- log ratio LPCAT3 (ILMN_1805225): 6.30E-01
- log ratio LRCH4 (probe ILMN_2157075): 8.54E-01
- log ratio LRP8 (ILMN_1677765): -8.68E-01
- log ratio LRRC1 (probe ILMN_1755383): 7.83E-01
- log ratio LRRC16 (ILMN_1736730): 5.94E-01
- log ratio LRRC32 (ILMN_2129161): 6.30E-01
- log ratio LRRC33 (ILMN_1746148): -1.42E+00
- log ratio LRRFIP2 (ILMN_1707156): 6.31E-01
- log ratio LRRK1 (ILMN_1696004): -8.42E-01
- log ratio LTA4H (probe ILMN_1690342): 7.50E-01
- log ratio LUZP1 (ILMN_1714159): 6.25E-01
- log ratio LYAR (ILMN_1764362): -8.62E-01
- log ratio LYAR (ILMN_2221564): -9.24E-01
- log ratio LYRM5 (probe ILMN_1744534): 7.90E-01
- log ratio LYRM7 (ILMN_3238623): 6.34E-01
- log ratio LYSMD4 (probe ILMN_2159859): 6.95E-01
- log ratio MAD2L2 (ILMN_1669550): 6.43E-01
- log ratio MAK16 (ILMN_1777139): -7.86E-01
- log ratio MAP1LC3B (probe ILMN_1703244): 7.73E-01
- log ratio MAP1S (ILMN_1796336): 6.11E-01
- log ratio MAP2K1 (probe ILMN_1694240): 7.15E-01
- log ratio MAPKAPK2 (ILMN_1774844): 6.77E-01
- log ratio MAPRE2 (probe ILMN_1695276): 7.72E-01
- log ratio MARCKSL1 (probe ILMN_1714433): 8.47E-01
- log ratio MAST3 (probe ILMN_1738749): 7.21E-01
- log ratio MCL1 (ILMN_1756806): 6.49E-01
- log ratio MCRS1 (ILMN_1784227): -9.30E-01
- log ratio MED24 (ILMN_2388272): -6.00E-01
- log ratio MEPCE (ILMN_2180827): -8.77E-01
- log ratio METTL1 (ILMN_1815190): -9.82E-01
- log ratio METTL1 (ILMN_3306997): -9.97E-01
- log ratio MEX3C (ILMN_1658182): -6.16E-01
- log ratio MGC3731 (ILMN_1759991): -9.43E-01
- log ratio MGEA5 (ILMN_1686750): 6.73E-01
- log ratio MINA (ILMN_1746025): -5.93E-01
- log ratio MNS1 (probe ILMN_2157240): 7.07E-01
- log ratio MPDU1 (ILMN_1655654): -1.02E+00
- log ratio MPDU1 (ILMN_2070815): -8.19E-01
- log ratio MRLC2 (ILMN_1654016): 5.90E-01
- log ratio MRPL3 (ILMN_1713143): -8.76E-01
- log ratio MRPL20 (ILMN_2189424): -8.46E-01
- log ratio MRPL24 (ILMN_2398995): -6.00E-01
- log ratio MRPL35 (ILMN_2341952): -5.96E-01
- log ratio MRPL54 (ILMN_1658486): -9.87E-01
- log ratio MRPS26 (ILMN_1676026): -7.88E-01
- log ratio MRPS30 (ILMN_1726743): -5.98E-01
- log ratio MRPS35 (ILMN_2189993): -8.24E-01
- log ratio MRTO4 (ILMN_1689800): -9.19E-01
- log ratio MTE (probe ILMN_2136089): 8.56E-01
- log ratio MTHFD1L (ILMN_1772521): -9.66E-01
- log ratio MTHFS (ILMN_1772302): -1.28E+00
- log ratio MTP18 (ILMN_2355665): -9.91E-01
- log ratio MTX3 (ILMN_1679071): -6.10E-01
- log ratio MYB (ILMN_1711894): -9.88E-01
- log ratio MYBL1 (probe ILMN_3241046): 7.69E-01
- log ratio MYD88 (ILMN_1738523): -1.17E+00
- log ratio MYH9 (ILMN_1722872): 6.24E-01
- log ratio MYH10 (ILMN_1815154): 5.97E-01
- log ratio N6AMT2 (ILMN_1730260): -9.90E-01
- log ratio NARG1 (ILMN_1669142): -6.10E-01
- log ratio NBN (ILMN_1734833): -9.40E-01
- log ratio NECAP2 (ILMN_1749011): 6.12E-01
- log ratio NEK2 (ILMN_2051373): 6.21E-01
- log ratio NGDN (ILMN_1690049): -6.03E-01
- log ratio NIP7 (ILMN_1704305): -1.05E+00
- log ratio NLGN2 (ILMN_1764158): 6.16E-01
- log ratio NMI (ILMN_1739541): -9.86E-01
- log ratio NOL6 (ILMN_2320250): -8.75E-01
- log ratio NOL11 (ILMN_1688971): -7.88E-01
- log ratio NOP16 (ILMN_3247723): -1.13E+00
- log ratio NOSIP (probe ILMN_1759436): 7.06E-01
- log ratio NPC2 (probe ILMN_1716678): 8.44E-01
- log ratio NPHP3 (ILMN_1730539): 6.73E-01
- log ratio NPL (probe ILMN_1782070): 7.76E-01
- log ratio NPL (probe ILMN_2149494): 8.88E-01
- log ratio NQO2 (probe ILMN_1712918): 8.69E-01
- log ratio NSMAF (ILMN_1716596): -1.37E+00
- log ratio NUB1 (probe ILMN_1665291): 7.20E-01
- log ratio NUCKS1 (ILMN_3251404): -5.98E-01
- log ratio NUDT6 (ILMN_2366972): 5.92E-01
- log ratio NUDT15 (ILMN_1751403): -5.98E-01
- log ratio NUMB (probe ILMN_2331266): 7.27E-01
- log ratio NUP188 (ILMN_1715416): -5.95E-01
- log ratio NXF1 (probe ILMN_1705783): 8.80E-01
- log ratio NXF1 (probe ILMN_2358652): 7.18E-01
- log ratio NXT1 (ILMN_1760280): -8.51E-01
- log ratio OAS2 (ILMN_2248970): -1.29E+00
- log ratio OSBPL2 (ILMN_1656482): 6.07E-01
- log ratio P704P (probe ILMN_1793950): 6.85E-01
- log ratio PAG1 (ILMN_2055156): 6.63E-01
- log ratio PAQR3 (ILMN_1716071): 6.81E-01
- log ratio PAQR8 (probe ILMN_1694589): 7.20E-01
- log ratio PCMT1 (ILMN_1671621): 6.27E-01
- log ratio PCTP (ILMN_1802257): 6.55E-01
- log ratio PCYOX1 (probe ILMN_1679725): 7.89E-01
- log ratio PDCD2 (ILMN_1758915): -8.70E-01
- log ratio PDXK (probe ILMN_1672504): 8.94E-01
- log ratio PECI (probe ILMN_2384536): 8.25E-01
- log ratio PEMT (ILMN_1745806): -5.93E-01
- log ratio PEX16 (probe ILMN_1745655): 7.84E-01
- log ratio PFKFB3 (ILMN_2186061): 6.71E-01
- log ratio PHF5A (ILMN_2112402): -8.44E-01
- log ratio PHF15 (ILMN_1795285): -8.13E-01
- log ratio PHF19 (ILMN_1713249): -1.52E+00
- log ratio PHF19 (ILMN_1745420): -1.01E+00
- log ratio PIGW (ILMN_1743397): -1.03E+00
- log ratio PIM2 (probe ILMN_1748283): 7.43E-01
- log ratio PITX1 (ILMN_1674386): -8.58E-01
- log ratio PKIA (ILMN_1762262): 6.12E-01
- log ratio PKIA (probe ILMN_2337974): 7.37E-01
- log ratio PLD3 (probe ILMN_1666976): 8.81E-01
- log ratio PLD6 (ILMN_1731518): -1.18E+00
- log ratio PLD6 (ILMN_3240586): -1.84E+00
- log ratio PLIN2 (ILMN_2138765): 5.92E-01
- log ratio PLS1 (ILMN_1759206): 6.43E-01
- log ratio PLXNA3 (ILMN_1719972): 6.52E-01
- log ratio PMAIP1 (probe ILMN_2098446): 8.50E-01
- log ratio PNKD (probe ILMN_1774604): 7.25E-01
